Literature values, collected in patent publication EP4174079B1 (UNIWERSYTET JAGIELLONSKI, priority 2021, dated 2023).

Conditions: compared with cisplatin

SMILES: [Cl][Pt][Cl].c1cn[nH]c1.c1cn[nH]c1 [Cis-PtCl2(pzH)2]
- antitumour activity: significantly lower than cisplatin
